Test results published in patent publication US11629141B2, “Proteasome inhibitors and uses thereof” (CORNELL UNIVERSITY, priority 2015, dated 2023).
“Also recorded” adds a separate entry of the source. Where two headings read alike, the source gives them in different places.

Key:
P. falciparum schizonts = experiment: Accumulation of poly-ubiquitinated proteins in P. falciparum schizonts; format: cell-based; details: 4 hours post treatment
β2i = molecular target: T1, β2i (Homo sapiens, UniProt P40306); experiment: Inhibition of β2i activity; format: biochemical; details: no inhibition <33 μM
T1 construct: purchased Boston Biochem Inc
Experimental: (§1) The foregoing features of these AsnEDA encouraged a further round of SAR studies (Table 5) based on varying the carboxylic acid at the ethylenediamine, the N-cap at the Asn, and the side chain of the Asn, based on PKS21004. All compounds listed in the Table 5 were synthesized as described in Examples 6-77. All final compounds were confirmed by NMR and HRMS. IC50s of all compounds against β5i and β5c (Table 5), β1i, β2i, β1c and β2c were determined following a reported method (Lin et al., “N,C-Capped Dipeptides With Selectivity for Mycobacterial Proteasome Over Human Proteasomes: Role of S3 and S1Binding Pockets,” J Am Chem Soc. 135:9968-9971 (2013), which is hereby incorporated by reference in its entirety). […] The [1,1′-biphenyl]-3-carboxamide of PKS21004 was then modified with the following substituents: 4′-fluoro (PKS21026), 4′-cyano (PKS21028), 4-fluoro (PKS21196), 4,3′-difluoro (PKS21195) and 4,2′-difluoro (PKS21187).

β2c = molecular target: T2, β2c (Homo sapiens, UniProt Q99436); experiment: Inhibition of β2c activity; format: biochemical; details: no inhibition <33 μM
T2 construct: purchased Boston Biochem Inc
Experimental: as §1

β1i = molecular target: T3, β1i (Homo sapiens, UniProt P28065); experiment: Inhibition of β1i activity; format: biochemical; details: no inhibition <33 μM
T3 construct: purchased Boston Biochem Inc
Experimental: as §1

[1] = molecular target: T4, human immunoproteasome β5i (Homo sapiens, UniProt P28062); experiment: IC50 against chymotryptic β5i activity of human immunoproteasome (96-well plate, Ac-ANW-AMC); format: biochemical; details: β5i; substrate Ac-ANW-AMC; read-out: IC50 Hu i-20S (Ac-ANW-AMC)
T4 construct: purchased Boston Biochem Inc
Experimental: A 96-well-plate assays were used to determine the IC50s against the chymotryptic β5 activities of the proteasomes. Both human constitutive proteasome and immunoproteasome were purchased from Boston Biochem Inc. 1 μL of 100× compound in DMSO at designated concentrations were spotted at the bottom of the wells. DMSO was used as a control. […] The hydrolysis of the substrate over time in each well was monitored at excitation 360 nm, emission 460 nm for 90 minutes. IC50s were estimated by fitting the velocities of hydrolysis against compound concentrations using PRISM. […] SDS (0.02%) was used as activator, and 0.01% BSA was used in the reaction buffer.

Pf20S β5 = experiment: Labeling of Pf20S active subunits by activity probe MV151 in Pf lysates; format: biochemical, P. falciparum; details: 1 hour with inhibitor, then MV151 (2 μM) 1 hour
Experimental: Pf lysates were incubated with inhibitors at indicated concentrations for 1 hour prior to incubation with MV151 (2 μM) for an additional hour. SDS pages were scanned on a Typhoon fluorescent scanner. […] BTZ was used as a positive control.

Pf Gametocytes = experiment: Gametocyte killing assay (DilC1(5), flow cytometry); format: cell-based; details: Plasmodium falciparum; NF54 peg4-tdTomato, 72 hour incubation; read-out: EC50 against Pf Gametocytes
Experimental: Asexual replication of NF54 peg4-tdTomato parasites was eliminated by treating with 50 mM GlcNAc and 20 U/mL Heparin for 3 days. NF54 peg4-tdTomato parasites then were maintained using standard culture techniques. Gametocytes were induced synchronously according to Fivelman et al., “Improved Synchronous Production of Plasmodium Falciparum Gametocytes in Vitro,” Mol Biochemo Parasitol. 154(1):119-123 (2007), which is hereby incorporated by reference in its entirety. Asexual replication was eliminated by treating with 50 mM GlcNAc for 3 days. Gametocyte killing assays were setup on days 5 and 10 in triplicate 96-well format at 1% hematocrit and 2% gametocytemia. Compounds were setup in triplicate and serially diluted 3-fold. In addition, 6 solvent controls (DMSO) were distributed evenly across the plate. Following a 72 hour incubation, Stage III-IV (Day 5-7) and Stage IV-V (Day 10-12), (start the incubation in the afternoon on Day 5 and Day 10, take out plate for assay on Day8 and Day13 afternoon) cultures were stained with 16 nM Hoechst 33342 and 50 nM DilC1(5) for 30 min at 37 C. Using a Cytek DxP12 flow cytometer, gametocytemia was determined by gating for DNA+, hemozoin-high cells and gametocyte viability was inferred based on mitochondrial membrane potential-dependent accumulation of DilC1(5) for 2000-3000 gametocytes (Tanaka et al., “Potent Plasmodium Falciparum Gametocytocidal Activity of Diaminonaphthoquinones, Lead Antimalarial Chemotypes Identified in an Antimalarial Compound Screen,” Antimicrob. Agents Chemother. 2015, 59:1389 (2015), which is hereby incorporated by reference in its entirety). Mean DilC1(5) signal was normalized to solvent control and the overall minimum and used to calculate the EC50 (FIG. 3 and Table 4).

Plasmodium falciparum = experiment: Growth of Plasmodium falciparum in red blood cells (SYBR Green, 72 hours); format: cell-based
Experimental: Continuous in vitro cultures of Plasmodium falciparum: were maintained in human red blood cells (RBC) diluted to a hematocrit of 5% in RPMI 1640 medium with HEPES and Hypoxanthine and completed with 0.5% Albumax II (Invitrogen), 0.25% sodium bicarbonate, and 0.1 mg/ml gentamicin. Parasites were incubated at 37° C. in a gas mixture of 5% oxygen, 5% carbon dioxide, and 90% nitrogen.
Parasite sensitivity to novel compounds were determined using a SYBR Green (Invitrogen S1046) drug assay protocol. P. falciparum of various clinic stains were cultured with compounds at concentrations in a series of dilution in a clear, sterile 96-well plate for 72 hours. Subsequently, 150 μl of the cultures were transferred to a black 96-well plate and placed in the freezer for red blood cell lysis. The plates were thawed and suspended in a Sybr Green Lysis buffer. GraphPad Prism was used to analyze the raw data collected […]. Drug concentrations were converted to logarithms, normalized, and then curve fitted by non-linear regression to obtain EC50 values.
Plasmodium falciparum: parasites were cultured in human red cells. Drug assays were run in 96 well plates at a total volume of 200 μl. Assays were set up at a starting parasitemia (percent of infected red cells) of 0.5%. Test compounds were plated at concentrations of 2778 nM to 0.4 nM. The test plates were grown under standard low oxygen conditions at 37° C. for 72 hours. At that time the plates were prepared for growth determination, first the plates were frozen and thawed to lyse the red blood cells, 150 μl of the lysed thawed culture was transferred to a black 96 well plate, and mixed in a lysis buffer with SYBR green DNA dye. The fluorescence of each well was recorded in a plate reader with excitation wavelength 490 nm and emission wavelength 530 nm and normalized relative to DMSO control. The EC50s were determined using Prism software.

CC(C)(C)NC(=O)C[C@H](NC(=O)CCc1ccccc1)C(=O)NCCNC(=O)c1cccc(-c2ccccc2)c1 [PKS21004]
accumulation of poly-ubiquitinated proteins (P. falciparum schizonts): accumulation of poly-ubiquitinated proteins
IC50 against β2i (β2i): no inhibition
IC50 against β2c (β2c): no inhibition
IC50 against β1i (β1i): no inhibition
IC50 [1]: 58 nM
labeling of Pf20S β5 by MV151 (Pf20S β5): block labeling; also recorded: inhibited the labeling
EC50 (Pf Gametocytes): 50 nM
EC50 (Plasmodium falciparum; D6, Erythrocyte, read-out: EC50s against P. falciparum strain D6): 4 nM
EC50 (Plasmodium falciparum; DD2, Erythrocyte, read-out: EC50s against P. falciparum strain Dd2): 4.8 nM
EC50 (Plasmodium falciparum; Erythrocyte, P.f. 3D7, growth in red blood cells, read-out: EC50 (nM) (P.f.)): 4.6 nM
EC50 (Plasmodium falciparum; Erythrocyte, read-out: EC50s against P. falciparum strain IPC 3663): 6 nM
EC50 (Plasmodium falciparum; Erythrocyte, read-out: EC50s against P. falciparum strain IPC 4884): 5.2 nM
EC50 (Plasmodium falciparum; Erythrocyte, read-out: EC50s against P. falciparum strain IPC 4912): 5.8 nM
EC50 (Plasmodium falciparum; Erythrocyte, read-out: EC50s against P. falciparum strain IPC 5188): 1.5 nM
EC50 (Plasmodium falciparum; Erythrocyte, read-out: EC50s against P. falciparum strain Sb1-a6): 4.8 nM
EC50 (Plasmodium falciparum; Erythrocyte, read-out: EC50s against P. falciparum strain V1S): 1.7 nM
EC50 (Plasmodium falciparum; HB3, Erythrocyte, read-out: EC50s against P. falciparum strain HB3): 10 nM
